Values of other authors, collected in article PMC9762682, “Tocotrienols: Exciting Biological and Pharmacological Properties of Tocotrienols and Naturally Occurring Compounds, Part II” (Annals of clinical case reports, 2022).
Read-outs that look alike come from different tables or passages of the source. Marks after values point to notes of the source that are not given here.

How the values were obtained:
[1] = parameters: method as in ref 14 = [14]; PMID 27493840; doi:10.4172/2155-9880.1000434; 14. Qureshi AA , Khan DA , Saleem S , Silswal N , Trias AM , Tan B , Pharmacokinetics and bioavailability of Annatto δ-tocotrienol in healthy fed subjects . J Clin Exp Cardiol . 2015; 6 : 11 . 10.417; conditions: for time of appearance in the plasma: after δ-tocotrienol administration to well-fed subjects; for Elimination of Half-life time (t1/2) / Elimination rate constant (ke) / Plasma Peak Concentration (Cmax) / Time to achieve plasma peak (Tmax): healthy fed subjects
[2] = parameters: method as in ref 16 = [16]; PMID 27493840; doi:10.4172/2155-9880.1000434; 16. Qureshi AA , Khan DA , Silswal N , Saleem S , Qureshi N . Evaluation of pharmacokinetics and bioavailability of higher doses of δ-tocotrienol in healthy fed humans . J Clin Exp Cardiol . 2016; 7
[3] = plasma tocol after single 125 mg δ-tocotrienol dose
[4] = plasma tocol after single 250 mg δ-tocotrienol dose
[5] = plasma tocol after single 500 mg δ-tocotrienol dose
[6] = 0 Hr., single dose 750 mg δ-tocotrienol
[7] = 0 Hr., single dose 1000 mg δ-tocotrienol
[8] = 1 hr., single dose 750 mg δ-tocotrienol
[9] = 1 hr., single dose 1000 mg δ-tocotrienol
[10] = 2 hr., single dose 750 mg δ-tocotrienol
[11] = 2 hr., single dose 1000 mg δ-tocotrienol
[12] = 4 hr., single dose 750 mg δ-tocotrienol
[13] = 4 hr., single dose 1000 mg δ-tocotrienol
[14] = 6 hr., single dose 750 mg δ-tocotrienol
[15] = 6 hr., single dose 1000 mg δ-tocotrienol
[16] = 8 hr., single dose 750 mg δ-tocotrienol
[17] = 8 hr., single dose 1000 mg δ-tocotrienol
[18] = single dose 750 mg δ-tocotrienol
[19] = single dose 1000 mg δ-tocotrienol
[20] = plasma tocol after single dose 750 mg δ-tocotrienol
[21] = plasma tocol after single dose 1000 mg δ-tocotrienol

Row | time of appearance in the plasma [1] | Elimination of Half-life time (t1/2) [1, 3] | Elimination rate constant (ke) [1, 3] | Plasma Peak Concentration (Cmax) [1, 3] | Time to achieve plasma peak (Tmax) [1, 3] | Elimination of Half-life time (t1/2) [1, 4] | Elimination rate constant (ke) [1, 4] | Plasma Peak Concentration (Cmax) [1, 4] | Elimination of Half-life time (t1/2) [1, 5] | Elimination rate constant (ke) [1, 5] | Plasma Peak Concentration (Cmax) [1, 5] | Time to achieve plasma peak (Tmax) [1, 5] | plasma tocol level [2, 6] | plasma tocol level [2, 7] | plasma tocol level [2, 8] | plasma tocol level [2, 9] | plasma tocol level [2, 10] | plasma tocol level [2, 11] | plasma tocol level [2, 12] | plasma tocol level [2, 13] | SMILES | other results
1 | > 2 h | 1.82 ± 0.23 h | 1.247 ± 0.073^a h-1 | 956.09 ± 70.06^a ng/mL | 5.18 ± 1.17 h | 3.97 ± 0.66^a h | 0.489 ± 0.063^b h-1 | 949.91 ± 126.37^a ng/mL | 3.27 ± 0.61^a h | 0.275 ± 0.023^c h-1 | 1045.09 ± 147.81^a ng/mL | 3.09 ± 0.32 h | 542 ± 11 ng/mL | 639 ± 38 ng/mL | 525 ± 54 ng/mL | 763 ± 69 ng/mL | 599 ± 14 ng/mL | 1025 ± 58 ng/mL | 704 ± 29 ng/mL | 1525 ± 32 ng/mL | Cc1cc(O)c(C)c2c1O[C@](C)(CCC[C@H](C)CCC[C@H](C)CCCC(C)C)CC2 [β-Tocopherol] | Time to achieve plasma peak (Tmax) [1, 4]: 3.09 ± 0.30 h; plasma tocol level [2, 14]: 621 ± 28 ng/mL; plasma tocol level [2, 15]: 717 ± 56 ng/mL; plasma tocol level [2, 16]: 278 ± 16 ng/mL; plasma tocol level [2, 17]: 516 ± 51 ng/mL; Total tocols (sum of 0-8 h) [2, 18]: 3269 ng/mL; Total tocols (sum of 0-8 h) [2, 19]: 5185 ng/mL
2 | > 2 h | 3.92 ± 0.86^a h | 0.542 ± 0.062^a h-1 | 979.00 ± 79.45^a ng/mL | 4.00 h | 3.90 ± 0.79^a h | 0.404 ± 0.032^b h-1 | 1083.73 ± 82.26^b ng/mL | 4.39 ± 0.63^a h | 0.192 ± 0.014^c h-1 | 1279.00 ± 116.44^c ng/mL | 3.00 h | 1145 ± 61 ng/mL | 1220 ± 93 ng/mL | 1565 ± 62 ng/mL | 1516 ± 21 ng/mL | 1568 ± 77 ng/mL | 1830 ± 91 ng/mL | 1885 ± 91 ng/mL | 1937 ± 72 ng/mL | CC(C)=CCC/C(C)=C/CC/C(C)=C/CC[C@]1(C)CCc2c(C)c(O)cc(C)c2O1 [β-Tocotrienol] | plasma tocol level [2, 14]: 1538 ± 22 ng/mL; plasma tocol level [2, 15]: 1315 ± 48 ng/mL; plasma tocol level [2, 16]: 137 ± 102 ng/mL; plasma tocol level [2, 17]: 519 ± 20 ng/mL; Area Under the Curve-t0 - t8 (AUC0-8) [2, 20]: 11473.96 ± 316.15^c ng/ml; Area Under the Curve-t0 - ∞ (AUC0-∞) [2, 20]: 11709.23 ± 459.66^c ng/ml; Elimination of Half-life time (t1/2) [2, 20]: 1.02 ± 0.34^c h; Elimination rate constant (ke) [2, 20]: 0.681 ± 0.103^b h-1; Peak Plasma Concentration (Cmax) [2, 20]: 1885.20 ± 90.95^c ng/ml; Time to achieve plasma peak (Tmax) [2, 20]: 4.00 ^a h; Elimination of Half-life time (t1/2) [2, 21]: 2.11 ± 0.03^b h; Elimination rate constant (ke) [2, 21]: 0.327 ± 0.167^a h-1; Peak Plasma Concentration (Cmax) [2, 21]: 1948.13 ± 66.43^c ng/ml; Time to achieve plasma peak (Tmax) [2, 21]: 3.33 ± 1.16^a h; Total tocols (sum of 0-8 h) [2, 18]: 7838 ng/mL; Total tocols (sum of 0-8 h) [2, 19]: 8337 ng/mL
